Converted amounts (≈) assume the structure as drawn.
How the values were obtained:
E. Coli 13352 = experiment: Agar dilution MIC, E. Coli 13352; type: cell-based; settings: Escherichia coli
Procedure: (§1) The biological activity of representative compounds according to the invention against various bacterial strains was investigated. In a typical study, overnight grown bacterial cultures were diluted appropriately and inoculated on the agar media containing doubling dilutions of the test compounds. Observations for growth or no growth was performed after 16-20 hours of incubation at 35±2° C. in the ambient air. The overall procedure was performed as per Clinical and Laboratory Standards Institute (CLSI) recommendations, (Clinical and Laboratory Standards Institute (CLSI), Performance Standards for Antimicrobial Susceptibility Testing, 20th Informational Supplement, M07-A9, Volume 32, No. 2, 2012). Molten Mueller Hinton Agar (MHA) (BD, USA) containing serial dilutions of each antibacterial agent were poured on to the plates and allowed to solidify. Appropriate suspensions from the freshly grown cultures were prepared in normal saline so that about 10^4 CFU/spot of the organism was delivered on to the drug containing agar plates using automated multipoint inoculator (Mast, UK). The plates were incubated in Biochemical oxygen demand (BOD) incubator at 37° C. for 18 hours and then examined for growth. […] The Table 2 depicts the antibacterial activity profile of compounds according to present invention against various multidrug resistant bacterial strains.

E. Coli 13353 = experiment: Agar dilution MIC, E. Coli 13353; type: cell-based; settings: Escherichia coli
Procedure: as §1

K. pneumoniae H 521 = experiment: Agar dilution MIC, K. pneumoniae H 521; type: cell-based; settings: Klebsiella pneumoniae, H521
Procedure: as §1

E. Coli S 18 = experiment: Agar dilution MIC, E. Coli S 18; type: cell-based; settings: Escherichia coli
Procedure: as §1

K. pneumoniae H 525 = experiment: Agar dilution MIC, K. pneumoniae H 525; type: cell-based; settings: Klebsiella pneumoniae, H525
Procedure: as §1

K. pneumoniae H 523 = experiment: Agar dilution MIC, K. pneumoniae H 523; type: cell-based; settings: Klebsiella pneumoniae, H523
Procedure: as §1

E. Coli M 50 = experiment: Agar dilution MIC, E. Coli M 50; type: cell-based; settings: Escherichia coli
Procedure: as §1

E. Coli 7 MP = experiment: Agar dilution MIC, E. Coli 7 MP; type: cell-based; settings: Escherichia coli
Procedure: as §1

K. pneumoniae H 522 = experiment: Agar dilution MIC, K. pneumoniae H 522; type: cell-based; settings: Klebsiella pneumoniae, H522
Procedure: as §1

E. Coli M 138 = experiment: Agar dilution MIC, E. Coli M 138; type: cell-based; settings: Escherichia coli
Procedure: as §1

E. Coli 13351 = experiment: Agar dilution MIC, E. Coli 13351; type: cell-based; settings: Escherichia coli
Procedure: as §1

KP ATCC 700603 = experiment: Agar dilution MIC, KP ATCC 700603; type: cell-based, K. pneumoniae; settings: Klebsiella pneumoniae, ATCC700603
Procedure: as §1

E. Coli M 36 = experiment: Agar dilution MIC, E. Coli M 36; type: cell-based; settings: Escherichia coli
Procedure: as §1

E. Coli M 49 = experiment: Agar dilution MIC, E. Coli M 49; type: cell-based; settings: Escherichia coli
Procedure: as §1

K. pneumoniae B 88 = experiment: MIC alone and in combination, K. pneumoniae B 88; type: cell-based; settings: Klebsiella pneumoniae, B88, 18 h, beta lactamase NDM, ESBL, alone or in combination as labelled
Procedure: as §1
(§2) The antibacterial activity of compounds according to the invention was also investigated in combination with several antibacterial agents. For example, antibacterial activity of the representative compounds of Formula (I) (Example 1 and Example 2) in combination with Ceftazidime and Cefixime are summarized in Table 3.

K. pneumoniae B 77 = experiment: MIC alone and in combination, K. pneumoniae B 77; type: cell-based; settings: Klebsiella pneumoniae, B77, 18 h, beta lactamase NDM, ESBL, alone or in combination as labelled
Procedure: as §1, §2

K. pneumoniae NCTC 13443 = experiment: MIC alone and in combination, K. pneumoniae NCTC 13443; type: cell-based; settings: Klebsiella pneumoniae, NCTC13443, 18 h, beta lactamase NDM, ESBL, alone or in combination as labelled
Procedure: as §1, §2

K. pneumoniae NCTC 13439 = experiment: MIC alone and in combination, K. pneumoniae NCTC 13439; type: cell-based; settings: Klebsiella pneumoniae, NCTC13439, 18 h, beta lactamase VIM-1, alone or in combination as labelled
Procedure: as §1, §2

[1] = system: Multi Drug Resistant (MDR) Gram negative strains; experiment: Antibacterial activity alone and in combination, summary of Table 3; type: cell-based, K. pneumoniae; settings: for antibacterial effect in combination: in combination with Ceftazidime and Cefixime, highly resistant bacterial strains; for antibacterial activity when used alone: strains of Table 3
Procedure: as §1, §2

K. pneumoniae S 465 = experiment: MIC alone and in combination, K. pneumoniae S 465; type: cell-based; settings: Klebsiella pneumoniae, S465, 18 h, beta lactamase OXA-181, ESBL, alone or in combination as labelled
Procedure: as §1, §2

| SMILES | MIC (E. Coli 13352) | MIC (E. Coli 13353) | MIC (K. pneumoniae H 521) | MIC (E. Coli S 18) | MIC (K. pneumoniae H 525) | MIC (K. pneumoniae H 523) | MIC (E. Coli M 50) | MIC (E. Coli 7 MP) | MIC (K. pneumoniae H 522) | MIC (E. Coli M 138) | MIC (E. Coli 13351) | MIC (KP ATCC 700603) | MIC (E. Coli M 36) | MIC (E. Coli M 49) | MIC (K. pneumoniae B 88) | MIC (K. pneumoniae B 77) | MIC (K. pneumoniae NCTC 13443) | MIC (K. pneumoniae NCTC 13439) | MIC (K. pneumoniae S 465) | antibacterial activity when used alone [1] | other results |
| --- | --- | --- | --- | --- | --- | --- | --- | --- | --- | --- | --- | --- | --- | --- | --- | --- | --- | --- | --- | --- | --- |
| C[C@H]1CN[C@H](CONC(=O)[C@@H]2CC[C@@H]3CN2C(=O)N3OS(=O)(=O)O)C1 [Example 1, (2S,5R)—N-{[(2S,4R)-4-methylpyrrolidin-2-yl]methyloxy}-7-oxo-6-(sulfooxy)-1,6-diazabicyclo[3.2.1]octane-2-carboxamide] | 1 µg/mL (≈ 2.64 µM) | 0.5 µg/mL (≈ 1.32 µM) | 1 µg/mL (≈ 2.64 µM) | 1 µg/mL (≈ 2.64 µM) | 0.5 µg/mL (≈ 1.32 µM) | 0.5 µg/mL (≈ 1.32 µM) | 0.5 µg/mL (≈ 1.32 µM) | 1 µg/mL (≈ 2.64 µM) | 1 µg/mL (≈ 2.64 µM) | 0.5 µg/mL (≈ 1.32 µM) | 1 µg/mL (≈ 2.64 µM) | > 32 µg/mL | 0.5 µg/mL (≈ 1.32 µM) | 4 µg/mL (≈ 10.6 µM) | > 32 µg/mL | > 32 µg/mL | > 32 µg/mL | > 32 µg/mL | > 32 µg/mL | did not exhibit significant antibacterial activity | antibacterial effect in combination [1]: unusual and unexpected synergistic antibacterial effect; melting point: 172 to 174 °C (dec.) |
| CC(C)(O/N=C(\C(=O)N[C@@H]1C(=O)N2C(C(=O)[O-])=C(C[n+]3ccccc3)CS[C@H]12)c1csc(N)n1)C(=O)O [Ceftazidime, reference compound] | – | – | – | – | – | – | – | – | – | – | – | – | – | – | > 32 µg/mL | > 32 µg/mL | > 32 µg/mL | > 32 µg/mL | > 32 µg/mL | did not exhibit significant antibacterial activity | – |
| C=CC1=C(C(=O)O)N2C(=O)[C@@H](NC(=O)/C(=N\OCC(=O)O)c3csc(N)n3)[C@H]2SC1 [Cefixime, reference compound] | – | – | – | – | – | – | – | – | – | – | – | – | – | – | > 32 µg/mL | > 32 µg/mL | > 32 µg/mL | > 32 µg/mL | > 32 µg/mL | – | – |

The next lines start with results.

| MIC (E. Coli 13352) | MIC (E. Coli 13353) | MIC (K. pneumoniae H 521) | MIC (E. Coli S 18) | MIC (K. pneumoniae H 525) | MIC (K. pneumoniae H 523) | MIC (E. Coli M 50) | MIC (E. Coli 7 MP) | MIC (K. pneumoniae H 522) | MIC (E. Coli M 138) | MIC (E. Coli 13351) | MIC (KP ATCC 700603) | MIC (E. Coli M 36) | MIC (E. Coli M 49) | MIC (K. pneumoniae B 88) | MIC (K. pneumoniae B 77) | MIC (K. pneumoniae NCTC 13443) | MIC (K. pneumoniae NCTC 13439) | MIC (K. pneumoniae S 465) | SMILES | antibacterial activity when used alone [1] | other results |
| --- | --- | --- | --- | --- | --- | --- | --- | --- | --- | --- | --- | --- | --- | --- | --- | --- | --- | --- | --- | --- | --- |
| 1 µg/mL (≈ 2.64 µM) | 0.5 µg/mL (≈ 1.32 µM) | 1 µg/mL (≈ 2.64 µM) | 1 µg/mL (≈ 2.64 µM) | 0.5 µg/mL (≈ 1.32 µM) | 0.5 µg/mL (≈ 1.32 µM) | 0.5 µg/mL (≈ 1.32 µM) | 2 µg/mL (≈ 5.29 µM) | 1 µg/mL (≈ 2.64 µM) | 0.5 µg/mL (≈ 1.32 µM) | 1 µg/mL (≈ 2.64 µM) | > 32 µg/mL | 0.5 µg/mL (≈ 1.32 µM) | 4 µg/mL (≈ 10.6 µM) | – | – | – | – | – | C[C@@H]1CN[C@@H](CONC(=O)[C@@H]2CC[C@@H]3CN2C(=O)N3OS(=O)(=O)O)C1 [Example 3, (2S,5R)—N-{[(2R,4S)-4-Methyl-pyrrolidin-2-yl]methyloxy}-7-oxo-6-(sulfooxy)-1,6-diazabicyclo[3.2.1]octane-2-carboxamide] | – | – |
| 1 µg/mL (≈ 2.64 µM) | 0.5 µg/mL (≈ 1.32 µM) | 2 µg/mL (≈ 5.29 µM) | 1 µg/mL (≈ 2.64 µM) | 1 µg/mL (≈ 2.64 µM) | 1 µg/mL (≈ 2.64 µM) | 1 µg/mL (≈ 2.64 µM) | 2 µg/mL (≈ 5.29 µM) | 1 µg/mL (≈ 2.64 µM) | 1 µg/mL (≈ 2.64 µM) | 1 µg/mL (≈ 2.64 µM) | > 32 µg/mL | 0.5 µg/mL (≈ 1.32 µM) | 4 µg/mL (≈ 10.6 µM) | > 32 µg/mL | > 32 µg/mL | > 32 µg/mL | > 32 µg/mL | > 32 µg/mL | C[C@@H]1CN[C@H](CONC(=O)[C@@H]2CC[C@@H]3CN2C(=O)N3OS(=O)(=O)O)C1 [Example 2, (2S,5R)—N-{[(2S,4S)-4-Methyl-pyrrolidin-2-yl]methyloxy}-7-oxo-6-(sulfooxy)-1,6-diazabicyclo[3.2.1]octane-2-carboxamide] | did not exhibit significant antibacterial activity | antibacterial effect in combination [1]: unusual and unexpected synergistic antibacterial effect |
| 2 µg/mL (≈ 5.07 µM) | 1 µg/mL (≈ 2.54 µM) | 2 µg/mL (≈ 5.07 µM) | 1 µg/mL (≈ 2.54 µM) | 1 µg/mL (≈ 2.54 µM) | 1 µg/mL (≈ 2.54 µM) | 1 µg/mL (≈ 2.54 µM) | 2 µg/mL (≈ 5.07 µM) | 2 µg/mL (≈ 5.07 µM) | 1 µg/mL (≈ 2.54 µM) | 1 µg/mL (≈ 2.54 µM) | > 32 µg/mL | 1 µg/mL (≈ 2.54 µM) | 4 µg/mL (≈ 10.1 µM) | – | – | – | – | – | O=C(NOC[C@H]1C[C@H](CO)CN1)[C@@H]1CC[C@@H]2CN1C(=O)N2OS(=O)(=O)O [Example 7] | – | – |

— patent publication US11865108B2, “Nitrogen containing bicyclic compounds” (Wockhardt Limited, priority 2019, dated 2024)
